Experimental findings from paper PMC5727211, “Development of Erasin: a chromone-based STAT3 inhibitor which induces apoptosis in Erlotinib-resistant lung cancer cells” (Scientific Reports, 2017) are described below.

One test concerns parental HCC-827 cells. Briefly: Apoptosis assay (Annexin V/7-AAD flow cytometry), parental HCC-827 cells. It counts as cell-based, human. The conditions noted are these: 24 h. As for the experimental part: Afterwards, the cell culture supernatant from each well was collected. […] The supernatants were then returned to each well to neutralize the Accutase solution and the cells were centrifuged at 3000 rpm, at 4 °C for 5 min. The cell pellets were washed twice with cold PBS and centrifuged again. […] Cells were resuspended in 1 x binding buffer and incubated with PE Annexin V and 7-AAD at 4 °C for 30 min. Apoptosis was measured using an LSR II flow cytometer (BD Bioscience). Experiments were carried out in at least triplicate.
Background: Flow cytometry measures light scatter and fluorescence of single cells or particles in a stream.

For test [1], the system named is Erlotinib-resistant HCC-827 cells. Briefly: Apoptosis assay (Annexin V/7-AAD flow cytometry), Erlotinib-resistant HCC-827 cells. It counts as cell-based, human. The conditions noted are these: 24 h. As for the experimental part:
Afterwards, the cell culture supernatant from each well was collected. […] The supernatants were then returned to each well to neutralize the Accutase solution and the cells were centrifuged at 3000 rpm, at 4 °C for 5 min. The cell pellets were washed twice with cold PBS and centrifuged again. […] Cells were resuspended in 1 x binding buffer and incubated with PE Annexin V and 7-AAD at 4 °C for 30 min. Apoptosis was measured using an LSR II flow cytometer (BD Bioscience). Experiments were carried out in at least triplicate. […]

Regarding `C#Cc1cccc(Nc2ncnc3cc(OCCOC)c(OCCOC)cc23)c1` [Erlotinib], the apoptosis result is on record as “significant increase in apoptosis” in the test on parental HCC-827 cells (1 nM) and “did not show increased apoptosis” in test [1] (10 nM). Further, the induction of apoptosis entry with parental HCC-827 cells (1 µM) is “more than tenfold induction of apoptosis”. Besides, the “increase of the apoptotic rate” value in test [1] (1 µM) is recorded as “only a twofold increase”.
